Reference: ChEMBL document CHEMBL4020788, “Synthesis, SAR and molecular docking studies of benzo[d]thiazole-hydrazones as potential antibacterial and antifungal agents” (2017)
In brackets after ≈: the same amount, converted by molar mass. Activity calls are given as the source filed them. The rule behind the calls is not given here.

What was measured:
Assay type in all cases: functional
[1] = test system: Klebsiella pneumoniae; assay: Antibacterial activity against Klebsiella pneumoniae at 25 ug/ml after 24 hrs by agar well diffusion method; details: read-out: DIZ
[2] = test system: Klebsiella pneumoniae; assay: Antibacterial activity against Klebsiella pneumoniae at 50 ug/ml after 24 hrs by agar well diffusion method; details: read-out: DIZ
[3] = test system: Aspergillus niger; assay: Antifungal activity against Aspergillus niger at 75 ug/ml after 48 hrs by agar well diffusion method; details: read-out: DIZ
[4] = test system: Staphylococcus aureus; assay: Antibacterial activity against methicillin resistant Staphylococcus aureus MRSA090 at 100 ug/ml after 24 hrs by agar well diffusion method; details: MRSA090, 24 h, read-out: DIZ
[5] = test system: Staphylococcus aureus; assay: Antibacterial activity against methicillin resistant Staphylococcus aureus MRSA090 at 25 ug/ml after 24 hrs by agar well diffusion method; details: MRSA090, 24 h, read-out: DIZ
[6] = test system: Escherichia coli; assay: Antibacterial activity against Escherichia coli at 25 ug/ml after 24 hrs by agar well diffusion method; details: for zone of inhibition at 25 µg/mL: read-out: DIZ
[7] = test system: Fusarium oxysporum; assay: Antifungal activity against Fusarium oxysporum at 100 ug/ml after 48 hrs by agar well diffusion method; details: read-out: DIZ
[8] = test system: Staphylococcus aureus; assay: Antibacterial activity against Staphylococcus aureus at 75 ug/ml after 24 hrs by agar well diffusion method; details: read-out: DIZ
[9] = test system: Klebsiella pneumoniae; assay: Antibacterial activity against Klebsiella pneumoniae at 75 ug/ml after 24 hrs by agar well diffusion method; details: read-out: DIZ
[10] = test system: Aspergillus niger; assay: Antifungal activity against Aspergillus niger at 50 ug/ml after 48 hrs by agar well diffusion method; details: read-out: DIZ
[11] = test system: Fusarium verticillioides; assay: Antifungal activity against Fusarium moniliforme at 100 ug/ml after 48 hrs by agar well diffusion method; details: read-out: DIZ
[12] = test system: Fusarium verticillioides; assay: Antifungal activity against Fusarium moniliforme at 50 ug/ml after 48 hrs by agar well diffusion method; details: read-out: DIZ
[13] = test system: Escherichia coli; assay: Antibacterial activity against Escherichia coli at 75 ug/ml after 24 hrs by agar well diffusion method; details: for zone of inhibition at 75 µg/mL: read-out: DIZ
[14] = test system: Fusarium verticillioides; assay: Antifungal activity against Fusarium moniliforme at 25 ug/ml after 48 hrs by agar well diffusion method; details: read-out: DIZ
[15] = test system: Escherichia coli; assay: Antibacterial activity against Escherichia coli at 100 ug/ml after 24 hrs by agar well diffusion method; details: for zone of inhibition at 100 µg/mL: read-out: DIZ
[16] = test system: Staphylococcus aureus; assay: Antibacterial activity against methicillin resistant Staphylococcus aureus MRSA090 at 50 ug/ml after 24 hrs by agar well diffusion method; details: MRSA090, 24 h, read-out: DIZ
[17] = test system: Klebsiella pneumoniae; assay: Antibacterial activity against Klebsiella pneumoniae at 100 ug/ml after 24 hrs by agar well diffusion method; details: read-out: DIZ
[18] = test system: Aspergillus niger; assay: Antifungal activity against Aspergillus niger at 100 ug/ml after 48 hrs by agar well diffusion method; details: read-out: DIZ
[19] = test system: Bacillus subtilis; assay: Antibacterial activity against Bacillus subtilis at 100 ug/ml after 24 hrs by agar well diffusion method; details: read-out: DIZ
[20] = test system: Fusarium oxysporum; assay: Antifungal activity against Fusarium oxysporum at 25 ug/ml after 48 hrs by agar well diffusion method; details: read-out: DIZ
[21] = test system: Aspergillus niger; assay: Antifungal activity against Aspergillus niger at 25 ug/ml after 48 hrs by agar well diffusion method; details: read-out: DIZ
[22] = test system: Bacillus subtilis; assay: Antibacterial activity against Bacillus subtilis at 75 ug/ml after 24 hrs by agar well diffusion method; details: read-out: DIZ
[23] = test system: Aspergillus niger; assay: Antifungal activity against Aspergillus niger after 48 to 72 hrs by microdilution method
[24] = test system: Bacillus subtilis; assay: Antibacterial activity against Bacillus subtilis at 25 ug/ml after 24 hrs by agar well diffusion method; details: read-out: DIZ
[25] = test system: Bacillus subtilis; assay: Antibacterial activity against Bacillus subtilis at 50 ug/ml after 24 hrs by agar well diffusion method; details: read-out: DIZ
[26] = test system: Escherichia coli; assay: Antibacterial activity against Escherichia coli at 50 ug/ml after 24 hrs by agar well diffusion method; details: for zone of inhibition at 50 µg/mL: read-out: DIZ
[27] = test system: Fusarium oxysporum; assay: Antifungal activity against Fusarium oxysporum after 48 to 72 hrs by microdilution method
[28] = test system: Fusarium oxysporum; assay: Antifungal activity against Fusarium oxysporum at 50 ug/ml after 48 hrs by agar well diffusion method; details: read-out: DIZ
[29] = test system: Fusarium oxysporum; assay: Antifungal activity against Fusarium oxysporum at 75 ug/ml after 48 hrs by agar well diffusion method; details: read-out: DIZ
[30] = test system: Staphylococcus aureus; assay: Antibacterial activity against Staphylococcus aureus at 25 ug/ml after 24 hrs by agar well diffusion method; details: read-out: DIZ
[31] = test system: Fusarium verticillioides; assay: Antifungal activity against Fusarium moniliforme after 48 to 72 hrs by microdilution method
[32] = test system: Fusarium verticillioides; assay: Antifungal activity against Fusarium moniliforme at 75 ug/ml after 48 hrs by agar well diffusion method; details: read-out: DIZ
[33] = test system: Staphylococcus aureus; assay: Antibacterial activity against Staphylococcus aureus at 100 ug/ml after 24 hrs by agar well diffusion method; details: read-out: DIZ
[34] = test system: Staphylococcus aureus; assay: Antibacterial activity against Staphylococcus aureus at 50 ug/ml after 24 hrs by agar well diffusion method; details: read-out: DIZ
[35] = test system: Staphylococcus aureus; assay: Antibacterial activity against methicillin resistant Staphylococcus aureus MRSA090 at 75 ug/ml after 24 hrs by agar well diffusion method; details: MRSA090, 24 h, read-out: DIZ
[36] = test system: Staphylococcus aureus; assay: Antibacterial activity against Staphylococcus aureus incubated for overnight by microdilution method
[37] = test system: Klebsiella pneumoniae; assay: Antibacterial activity against Klebsiella pneumoniae incubated for overnight by microdilution method
[38] = test system: Escherichia coli; assay: Antibacterial activity against Escherichia coli incubated for overnight by microdilution method
[39] = test system: Bacillus subtilis; assay: Antibacterial activity against Bacillus subtilis incubated for overnight by microdilution method

SMILES	zone of inhibition at 25 µg/mL [1]	zone of inhibition at 50 µg/mL [2]	zone of inhibition at 75 µg/mL [3]	zone of inhibition at 100 µg/mL [4]	zone of inhibition at 25 µg/mL [5]	zone of inhibition at 100 µg/mL [7]	zone of inhibition at 75 µg/mL [8]	zone of inhibition at 75 µg/mL [9]	zone of inhibition at 50 µg/mL [10]	zone of inhibition at 100 µg/mL [11]	zone of inhibition at 50 µg/mL [12]	zone of inhibition at 25 µg/mL [14]	zone of inhibition at 50 µg/mL [16]	zone of inhibition at 100 µg/mL [17]	zone of inhibition at 100 µg/mL [18]	zone of inhibition at 100 µg/mL [19]	zone of inhibition at 25 µg/mL [20]	zone of inhibition at 25 µg/mL [21]	zone of inhibition at 75 µg/mL [22]	MIC [23]	other results
Cc1cccc2nc(N/N=C/c3ccc(Cl)cc3Cl)sc12	10 mm	15 mm	29 mm	16 mm	5 mm	31 mm	16 mm	19 mm	24 mm	32 mm	21 mm	17 mm	8 mm	22 mm	33 mm	16 mm	18 mm	20 mm	13 mm	25 µg/mL (≈ 74.4 µM)	diameter of the inhibition zone (DIZ) [6]: inactive; diameter of the inhibition zone (DIZ) [13]: inactive; diameter of the inhibition zone (DIZ) [15]: inactive; zone of inhibition at 25 µg/mL [24]: 4 mm; zone of inhibition at 50 µg/mL [25]: 9 mm; diameter of the inhibition zone (DIZ) [26]: inactive; MIC [27]: 26 µg/mL (≈ 77.3 µM); zone of inhibition at 50 µg/mL [28]: 22 mm; zone of inhibition at 75 µg/mL [29]: 27 mm; zone of inhibition at 25 µg/mL [30]: 4 mm; MIC [31]: 28 µg/mL (≈ 83.3 µM); zone of inhibition at 75 µg/mL [32]: 28 mm; zone of inhibition at 100 µg/mL [33]: 20 mm; zone of inhibition at 50 µg/mL [34]: 12 mm; zone of inhibition at 75 µg/mL [35]: 13 mm
Cc1cccc2nc(N/N=C/c3ccc([N+](=O)[O-])cc3[N+](=O)[O-])sc12	5 mm	19 mm	29 mm	18 mm	8 mm	28 mm	13 mm	14 mm	24 mm	36 mm	24 mm	20 mm	13 mm	19 mm	32 mm	16 mm	13 mm	21 mm	12 mm	25 µg/mL (≈ 70 µM)	zone of inhibition at 25 µg/mL [6]: 8 mm; zone of inhibition at 75 µg/mL [13]: 15 mm; zone of inhibition at 100 µg/mL [15]: 18 mm; zone of inhibition at 25 µg/mL [24]: 3 mm; zone of inhibition at 50 µg/mL [25]: 7 mm; zone of inhibition at 50 µg/mL [26]: 13 mm; MIC [27]: 22 µg/mL (≈ 61.6 µM); zone of inhibition at 50 µg/mL [28]: 19 mm; zone of inhibition at 75 µg/mL [29]: 25 mm; zone of inhibition at 25 µg/mL [30]: 6 mm; MIC [31]: 25 µg/mL (≈ 70 µM); zone of inhibition at 75 µg/mL [32]: 30 mm; zone of inhibition at 100 µg/mL [33]: 19 mm; zone of inhibition at 50 µg/mL [34]: 9 mm; zone of inhibition at 75 µg/mL [35]: 16 mm
Cc1cccc2nc(N/N=C/c3ccc(Br)cc3Br)sc12	8 mm	11 mm	36 mm	17 mm	8 mm	38 mm	18 mm	15 mm	29 mm	41 mm	27 mm	21 mm	12 mm	20 mm	40 mm	27 mm	16 mm	24 mm	24 mm	20 µg/mL (≈ 47 µM)	zone of inhibition at 25 µg/mL [6]: 5 mm; MIC [36]: 28 µg/mL (≈ 65.9 µM); MIC [37]: 20 µg/mL (≈ 47 µM); zone of inhibition at 75 µg/mL [13]: 12 mm; zone of inhibition at 100 µg/mL [15]: 16 mm; MIC [38]: 24 µg/mL (≈ 56.5 µM); zone of inhibition at 25 µg/mL [24]: 13 mm; zone of inhibition at 50 µg/mL [25]: 17 mm; zone of inhibition at 50 µg/mL [26]: 8 mm; MIC [27]: 16 µg/mL (≈ 37.6 µM); zone of inhibition at 50 µg/mL [28]: 24 mm; zone of inhibition at 75 µg/mL [29]: 30 mm; zone of inhibition at 25 µg/mL [30]: 11 mm; MIC [31]: 18 µg/mL (≈ 42.3 µM); zone of inhibition at 75 µg/mL [32]: 32 mm; zone of inhibition at 100 µg/mL [33]: 21 mm; zone of inhibition at 50 µg/mL [34]: 15 mm; zone of inhibition at 75 µg/mL [35]: 15 mm; MIC [39]: 28 µg/mL (≈ 65.9 µM)
